In patent US9346811B2, “6,7-dihydro-pyrazolo[1,5-a]pyrazin-4-ylamine derivatives useful as inhibitors of beta-secretase (BACE)” (JANSSEN PHARMACEUTICA NV, priority 2011, dated 2016):
Structures can show the parent of a compound that is named as a salt.

What was measured:
[1] = target: recombinant BACE1 protein (Homo sapiens, UniProt P56817); experiment: Biochemical FRET based assay; conditions: recombinant BACE1 1 μg/ml, 120 min, pH 5.0; for IC50: read-out: Biochemical FRET based assay pIC50 (converted)
recombinant BACE1 protein, sequence (P56817 46-501): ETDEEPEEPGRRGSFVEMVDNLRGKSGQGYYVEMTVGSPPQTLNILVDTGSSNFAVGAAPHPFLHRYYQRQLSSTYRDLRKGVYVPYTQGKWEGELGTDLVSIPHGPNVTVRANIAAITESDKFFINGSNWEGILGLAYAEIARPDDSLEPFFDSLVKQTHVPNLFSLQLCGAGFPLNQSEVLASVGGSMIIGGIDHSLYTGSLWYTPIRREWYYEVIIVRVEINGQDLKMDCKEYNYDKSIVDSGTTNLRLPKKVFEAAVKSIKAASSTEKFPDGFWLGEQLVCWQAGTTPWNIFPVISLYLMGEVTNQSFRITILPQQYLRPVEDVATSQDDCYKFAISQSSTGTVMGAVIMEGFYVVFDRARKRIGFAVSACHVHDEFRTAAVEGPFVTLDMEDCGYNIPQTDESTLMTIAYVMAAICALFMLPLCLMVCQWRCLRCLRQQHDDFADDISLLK
Text: Biochemical FRET Based Assay
This assay is a Fluorescence Resonance Energy Transfer Assay (FRET) based assay. The substrate for this assay is an APP derived 13 amino acids peptide that contains the ‘Swedish’ Lys-Met/Asn-Leu mutation of the amyloid precursor protein (APP) β-secretase cleavage site. This substrate also contains two fluorophores: (7-methoxycoumarin-4-yl)acetic acid (Mca) is a fluorescent donor with excitation wavelength at 320 nm and emission at 405 nm and 2,4-Dinitrophenyl (Dnp) is a proprietary quencher acceptor. […] Upon cleavage by BACE1, the fluorophore Mca is separated from the quenching group Dnp, restoring the full fluorescence yield of the donor. The increase in fluorescence is linearly related to the rate of proteolysis (Koike H et al. J. Biochem. 1999, 126, 235-242). Briefly in a 384-well format recombinant BACE1 protein in a final concentration of 1 μg/ml is incubated for 120 min at room temperature with 10 μm substrate in incubation buffer (40 mM Citrate buffer pH 5.0, 0.04% PEG, 4% DMSO) in the absence or presence of compound. Next the amount of proteolysis is directly measured by fluorescence measurement at T=0 and T=120 (excitation at 320 nm and emission at 405 nm).

[2] = system: Aβ42 produced and secreted into the medium of human neuroblastoma SKNBE2 cells; experiment: Cellular αlisa assay in SKNBE2 cells, Aβ42; assay type: cell-based; conditions: SKNBE2 cells expressing hAPP695, 18 hours incubation; for IC50: Homo sapiens, SKNBE2, 18 h, read-out: Cellular αlisa assay in SKNBE2 cells Aβ42 pIC50 (converted)
Procedure: (§1) Cellular αlisa Assay in SKNBE2 Cells
(§2) In two αlisa assays the levels of Aβtotal and Aβ42 produced and secreted into the medium of human neuroblastoma SKNBE2 cells are quantified. The assay is based on the human neuroblastoma SKNBE2 expressing the wild type Amyloid Precursor Protein (hAPP695). The compounds are diluted and added to these cells, incubated for 18 hours and then measurements of Aβ42 and Aβtotal are taken. Aβtotal and Aβ42 are measured by sandwich αlisa. αlisa is a sandwich assay using biotinylated antibody AbN/25 attached to streptavidin coated beads and antibody Ab4G8 or cAb42/26 conjugated acceptor beads for the detection of Aβtotal and Aβ42 respectively. In the presence of Aβtotal or Aβ42, the beads come into close proximity. The excitation of the Donor beads provokes the release of singlet oxygen molecules that triggers a cascade of energy transfer in the Acceptor beads, resulting in light emission. Light emission is measured after 1 hour incubation (excitation at […] and emission at 615 nm).
(§3) A best-fit curve is fitted by a minimum sum of squares method to the plot of % Controlmin versus compound concentration.

[3] = system: Aβtotal produced and secreted into the medium of human neuroblastoma SKNBE2 cells; experiment: Cellular αlisa assay in SKNBE2 cells, Aβtotal; assay type: cell-based; conditions: SKNBE2 cells expressing hAPP695, 18 hours incubation; for IC50: Homo sapiens, SKNBE2, 18 h, read-out: Cellular αlisa assay in SKNBE2 cells Aβtotal pIC50 (converted)
Procedure: as §1, §2, §3

Compound	IC50 [1] [nM]	IC50 [2] [nM]	IC50 [3] [nM]	Biochemical FRET based assay pIC50 [1]	Cellular αlisa assay in SKNBE2 cells Aβ42 pIC50 [2]	Cellular αlisa assay in SKNBE2 cells Aβtotal pIC50 [3]
CC1(c2cccc(NC(=O)c3ccc(Cl)cn3)c2)Cn2nccc2C(N)=N1 (racemic) [Compound 2, rac-5-chloro-pyridine-2-carboxylic acid [3-(4-amino-6-methyl-6,7-dihydro-pyrazolo[1,5-a]pyrazin-6-yl)-phenyl]-amide]	83.2	3.24	2.45	–	–	–
CC1(c2cccc(NC(=O)c3ncc(Cl)cc3Cl)c2)Cn2nccc2C(N)=N1 (racemic) [Compound 3, rac-3,5-dichloro-pyridine-2-carboxylic acid [3-(4-amino-6-methyl-6,7-dihydro-pyrazolo[1,5-a]pyrazin-6-yl)-phenyl]-amide]	46.8	3.24	3.39	–	–	–
CC1(c2cccc(NC(=O)c3ccc(C#N)cn3)c2)Cn2nccc2C(N)=N1 (racemic) [Compound 6, rac-5-cyano-pyridine-2-carboxylic acid [3-(4-amino-6-methyl-6,7-dihydro-pyrazolo[1,5-a]pyrazin-6-yl)-phenyl]-amide]	–	5.75	5.13	–	–	–
CC1(c2cccc(NC(=O)c3ccc(C#N)cn3)c2)Cn2ncc(Br)c2C(N)=N1 (racemic) [Compound 9, rac-5-cyano-pyridine-2-carboxylic acid [3-(4-amino-3-bromo-6-methyl-6,7-dihydro-pyrazolo[1,5-a]pyrazin-6-yl)-phenyl]-amide trifluorocetate salt]	7940	1000	871	–	–	–
CC1(c2cccc(NC(=O)c3ncc(Cl)cc3Cl)c2)Cn2nc(C(F)(F)F)cc2C(N)=N1 (racemic) [Compound 10, rac-3,5-dichloro-pyridine-2-carboxylic acid [3-(4-amino-6-methyl-2-trifluoromethyl-6,7-dihydro-pyrazolo[1,5-a]pyrazin-6-yl)-phenyl]-amide]	63.1	16.6	15.5	–	–	–
CC1(c2cc(NC(=O)c3ncc(Cl)cc3Cl)ccc2F)Cn2nccc2C(N)=N1 (racemic) [Compound 14, rac-3,5-dichloro-pyridine-2-carboxylic acid [3-(4-amino-6-methyl-6,7-dihydro-pyrazolo[1,5-a]pyrazin-6-yl)-4-fluoro-phenyl]-amide]	35.5	1.35	1.17	–	–	–
COc1cnc(C(=O)Nc2ccc(F)c(C3(C(F)F)Cn4nccc4C(N)=N3)c2)cn1 (racemic) [Compound 17, rac-5-methoxy-pyrazine-2-carboxylic acid [3-(4-amino-6-difluoromethyl-6,7-dihydro-pyrazolo[1,5-a]pyrazin-6-yl)-4-fluoro-phenyl]-amide]	57.5	39.8	33.1	–	–	–
NC1=NC(c2cc(NC(=O)c3ccc(F)cn3)ccc2F)(C(F)F)Cn2nccc21 (racemic) [Compound 20, rac-5-fluoro-pyridine-2-carboxylic acid [3-(4-amino-6-difluoromethyl-6,7-dihydro-pyrazolo[1,5-a]pyrazin-6-yl)-4-fluoro-phenyl]-amide]	66.1	85.1	66.1	–	–	–
COc1cnc(C(=O)Nc2cccc(C3(C)Cn4nc(C(F)(F)F)cc4C(N)=N3)c2)cn1 (racemic) [Compound 30]	–	–	–	6.77	7.43	7.45
Cc1nn2c(c1F)C(N)=NC(C)(c1cc(NC(=O)c3ccc(F)cn3)ccc1F)C2 (racemic) [Compound 41]	–	–	–	6.93	7.69	7.67
CC1(c2cccc(NC(=O)c3ncc(Cl)cc3Cl)c2)Cn2nccc2C(N)=N1 (single isomer, unassigned) [Compound 4, (R*)-3,5-dichloro-pyridine-2-carboxylic acid [3-(4-amino-6-methyl-6,7-dihydro-pyrazolo[1,5-a]pyrazin-6-yl)-phenyl]-amide]	21400	–	–	–	5.84	5.84
CC1(c2cccc(NC(=O)c3ncc(Cl)cc3Cl)c2)Cn2nccc2C(N)=N1 (single isomer, unassigned) [Compound 5, (S*)-3,5-dichloro-pyridine-2-carboxylic acid [3-(4-amino-6-methyl-6,7-dihydro-pyrazolo[1,5-a]pyrazin-6-yl)-phenyl]-amide]	37.2	–	–	–	8.59	8.55
CC1(c2cccc(NC(=O)c3ccc(C#N)cn3)c2)Cn2nccc2C(N)=N1 (single isomer, unassigned) [Compound 8, (S*)-5-cyano-pyridine-2-carboxylic acid [3-(4-amino-6-methyl-6,7-dihydro-pyrazolo[1,5-a]pyrazin-6-yl)-phenyl]-amide]	–	–	–	–	6.13	6.13
CC1(c2cccc(NC(=O)c3ncc(Cl)cc3Cl)c2)Cn2nc(C(F)(F)F)cc2C(N)=N1 (single isomer, unassigned) [Compound 12, (S*)-3,5-dichloro-pyridine-2-carboxylic acid [3-(4-amino-6-methyl-2-trifluoromethyl-6,7-dihydro-pyrazolo[1,5-a]pyrazin-6-yl)-phenyl]-amide]	8710	–	–	–	5.64	5.75
CC1(c2cc(NC(=O)c3ncc(Cl)cc3Cl)ccc2F)Cn2nccc2C(N)=N1 (single isomer, unassigned) [Compound 15, (R*)-3,5-dichloro-pyridine-2-carboxylic acid [3-(4-amino-6-methyl-6,7-dihydro-pyrazolo[1,5-a]pyrazin-6-yl)-4-fluoro-phenyl]-amide]	18.6	–	–	–	9.33	9.37
CC1(c2cc(NC(=O)c3ncc(Cl)cc3Cl)ccc2F)Cn2nccc2C(N)=N1 (single isomer, unassigned) [Compound 16, (S*)-3,5-dichloro-pyridine-2-carboxylic acid [3-(4-amino-6-methyl-6,7-dihydro-pyrazolo[1,5-a]pyrazin-6-yl)-4-fluoro-phenyl]-amide]	1050	–	–	–	7.66	7.74
COc1cnc(C(=O)Nc2ccc(F)c(C3(C(F)F)Cn4nccc4C(N)=N3)c2)cn1 (single isomer, unassigned) [Compound 18, (R*)-5-methoxy-pyrazine-2-carboxylic acid [3-(4-amino-6-difluoromethyl-6,7-dihydro-pyrazolo[1,5-a]pyrazin-6-yl)-4-fluoro-phenyl]-amide]	22.4	–	–	–	7.52	7.54
COc1cnc(C(=O)Nc2ccc(F)c(C3(C(F)F)Cn4nccc4C(N)=N3)c2)cn1 (single isomer, unassigned) [Compound 19, (S*)-5-methoxy-pyrazine-2-carboxylic acid [3-(4-amino-6-difluoromethyl-6,7-dihydro-pyrazolo[1,5-a]pyrazin-6-yl)-4-fluoro-phenyl]-amide]	9770	–	–	–	5.28	5.13
NC1=NC(c2cc(NC(=O)c3ccc(F)cn3)ccc2F)(C(F)F)Cn2nccc21 (single isomer, unassigned) [Compound 21, (S*)-5-fluoro-pyridine-2-carboxylic acid [3-(4-amino-6-difluoromethyl-6,7-dihydro-pyrazolo[1,5-a]pyrazin-6-yl)-4-fluoro-phenyl]-amide]	> 30200	–	–	–	<5	<5
C[C@@]1(c2cc(NC(=O)c3cnn(C(F)F)c3)ccc2F)Cn2nc(C#N)cc2C(N)=N1 [Compound 25, (R)-1-difluoromethyl-1H-pyrazole-4-carboxylic acid [3-(4-amino-2-cyano-6-methyl-6,7-dihydro-pyrazolo[1,5-a]pyrazin-6-yl)-4-fluoro-phenyl]-amide]	–	1.32	1.35	–	–	–
